Consider 6 sequences from article PMC1283537, “Systematic Discovery of New Recognition Peptides Mediating Protein Interaction Networks” (PLoS Biology, 2005).

Where no end group is shown, it is not given here.

Assay [1] deals with T1, protein phosphatase 1 (PP1) (Homo sapiens, UniProt P36873).
T1 construct: made in house; host or cells: E. coli BL21(DE3)
Put plainly: Fluorescence polarization binding of FITC-labelled peptides to PP1. Further details: species or system H. sapiens. Background: Fluorescence polarisation rises when a labelled molecule tumbles more slowly, as on binding a larger partner.

For the next assay, the target named is T2, Translin (Drosophila melanogaster, UniProt Q7JVK6).
T2 sequence (Q7JVK6 1-235): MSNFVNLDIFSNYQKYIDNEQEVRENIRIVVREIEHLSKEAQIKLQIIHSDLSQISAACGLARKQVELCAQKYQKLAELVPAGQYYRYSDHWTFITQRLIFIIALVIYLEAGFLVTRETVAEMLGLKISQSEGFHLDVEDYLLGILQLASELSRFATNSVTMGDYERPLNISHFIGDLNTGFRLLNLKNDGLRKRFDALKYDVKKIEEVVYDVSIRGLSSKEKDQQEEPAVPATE
Put plainly: Fluorescence polarization binding of FITC-labelled peptides to Translin. The following applies: FITC N-terminal labeled peptide 10 nM in PBS pH 7.4, 5 min at room temperature, non-linear regression on three independent experiments.

For the next assay, the target named is T3, abl-SH3 domain (Homo sapiens, UniProt P00519).
T3 construct: preparation of human abl-SH3 domain [9]; made in house
T3 sequence (P00519 61-121 limits assumed): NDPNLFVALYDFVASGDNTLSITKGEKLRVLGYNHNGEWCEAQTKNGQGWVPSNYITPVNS
The assay is described as follows: Fluorescence polarization preliminary test with abl-SH3 binding peptide. The conditions noted are these: FITC N-terminal labeled peptide.

Assay [2] deals with Cdlc2 (Dynein light chain 2). Put plainly: Fluorescence polarization binding of FITC-labelled peptides to Cdlc2. Details: species or system Drosophila melanogaster. The conditions noted are these: FITC-labelled peptide 10 nM, PBS pH 7.4, protein concentrations 5–400 μM.

T1 sequence (P36873 whole entry): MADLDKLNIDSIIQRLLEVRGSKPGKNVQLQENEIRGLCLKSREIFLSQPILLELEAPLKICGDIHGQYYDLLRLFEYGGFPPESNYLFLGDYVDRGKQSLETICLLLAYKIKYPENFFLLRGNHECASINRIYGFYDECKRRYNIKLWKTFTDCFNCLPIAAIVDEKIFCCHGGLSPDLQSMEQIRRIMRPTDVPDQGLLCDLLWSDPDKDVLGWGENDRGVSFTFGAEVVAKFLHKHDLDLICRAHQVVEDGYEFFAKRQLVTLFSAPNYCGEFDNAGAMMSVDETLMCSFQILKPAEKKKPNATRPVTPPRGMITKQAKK

Broadly, the Kd is the constant that tells how readily two partners part at equilibrium. As for VSASPAAVAAPV [Mutant], the Kd in assay [1] (FITC N-terminal labeled peptide 10 nM in PBS pH 7.4, 5 min at room temperature, normalized to extrapolated Bmax, non-linear regression, three independent experiments) was 65 ± 14 µM. The “specific binding to PP1” value in assay [1] (result in words) was “retain some affinity”.

As to “VSASPAAVAAPV (also: FITC label, position not given here) [Mutant]”, in the assay with Translin, the Kd is more than 300 µM. On abl-SH3 domain, GAPTYSPPPPP [GAPTYSPPPPP] returned an equilibrium dissociation constant (Kd) of 3 ± 0.4 µM. Turning to “ERAIQTENA [CG33213/104-112, Cdlc2 native peptide with the IQTE variant motif]”, the “binding to Cdlc2” value in assay [2] was “No binding”.

For “ERAAAAENA [mutant of the Cdlc2 native peptide, motif positions mutated to Alanine]”, the “binding to Cdlc2” value in assay [2] is recorded as “No binding”. On the same count and under the same terms, to “PFGTQTSPP [CG32130/215-223, additional peptide containing the canonical TQT motif, reference compound]” belongs “No binding”.
